Assay results published in the NIST ThermoML archive (doi:10.1016/j.fluid.2007.03.030).
± gives the expanded uncertainty stated by the source.

Tests used:
[1] = Liquid; for mass density: 298.15 K, 101.33 kPa; for vapor or sublimation pressure: Ebulliometric method (Recirculating still)
[2] = refractive index (Na D-line) (dimensionless); details: 298.15 K; 101.33 kPa; Liquid; Standard Abbe refractometry

## CCOCCO [2-ethoxyethan-1-ol]
[1]
  mass density: 925.38 ± 0.29 kg/m3
[1]; 345.63 K
  vapor or sublimation pressure: 9.97 ± 0.2 kPa
[1]; 349.72 K
  vapor or sublimation pressure: 11.98 ± 0.2 kPa
[1]; 353.3 K
  vapor or sublimation pressure: 13.98 ± 0.2 kPa
[1]; 356.42 K
  vapor or sublimation pressure: 15.98 ± 0.2 kPa
[1]; 359.27 K
  vapor or sublimation pressure: 17.98 ± 0.2 kPa
[1]; 363.08 K
  vapor or sublimation pressure: 20.96 ± 0.2 kPa
[1]; 365.34 K
  vapor or sublimation pressure: 22.97 ± 0.2 kPa
[1]; 367.46 K
  vapor or sublimation pressure: 24.98 ± 0.2 kPa
[1]; 370.33 K
  vapor or sublimation pressure: 27.95 ± 0.2 kPa
[1]; 373 K
  vapor or sublimation pressure: 30.94 ± 0.2 kPa
[1]; 375.49 K
  vapor or sublimation pressure: 33.97 ± 0.2 kPa
[1]; 378.51 K
  vapor or sublimation pressure: 37.93 ± 0.2 kPa
[1]; 381.26 K
  vapor or sublimation pressure: 41.98 ± 0.2 kPa
[1]; 383.78 K
  vapor or sublimation pressure: 45.88 ± 0.2 kPa
[1]; 386.12 K
  vapor or sublimation pressure: 49.91 ± 0.2 kPa
[1]; 388.87 K
  vapor or sublimation pressure: 54.89 ± 0.21 kPa
[1]; 391.39 K
  vapor or sublimation pressure: 59.83 ± 0.21 kPa
[1]; 393.83 K
  vapor or sublimation pressure: 64.82 ± 0.21 kPa
[1]; 396.01 K
  vapor or sublimation pressure: 69.65 ± 0.21 kPa
[1]; 398.1 K
  vapor or sublimation pressure: 74.57 ± 0.21 kPa
[1]; 400.12 K
  vapor or sublimation pressure: 79.47 ± 0.21 kPa
[1]; 402.11 K
  vapor or sublimation pressure: 84.74 ± 0.21 kPa
[1]; 403.97 K
  vapor or sublimation pressure: 89.84 ± 0.21 kPa
[1]; 405.76 K
  vapor or sublimation pressure: 94.91 ± 0.21 kPa
[1]; 407.95 K
  vapor or sublimation pressure: 101.3 ± 0.21 kPa
[2]
  refractive index: 1.4062 ± 0.0005

## CCCOCCC [dipropyl ether]
[1]
  mass density: 741.81 ± 0.56 kg/m3
[1]; 363.16 K
  vapor or sublimation pressure: 101.3 ± 0.5 kPa
[2]
  refractive index: 1.3784 ± 0.0005

## CCCO [propan-1-ol]
[1]
  mass density: 799.62 ± 0.48 kg/m3
[1]; 369.75 K
  vapor or sublimation pressure: 101.3 ± 0.5 kPa
[2]
  refractive index: 1.3836 ± 0.0005
